Experimental data: the supplement of paper PMC12076712
± gives the standard deviation of the averaged measurements.

Experiments:
Assay in all cases: pIC50, competition of probe 3 labelling in live cells
Details in all cases: cell material: Jurkat cells
CDK5 = CDK5 (UniProt Q00535)
UniProt P49840 = target: UniProt P49840
RIPK1 = RIPK1 (UniProt Q13546)
UniProt P36507 = target: UniProt P36507
UniProt P45983 = target: UniProt P45983
UniProt P45984 = target: UniProt P45984
UniProt Q9P289 = target: UniProt Q9P289
PNPLA6 = PNPLA6 (UniProt Q8IY17)
FER = FER (UniProt P16591)
UniProt P19525 = target: UniProt P19525
Chain of UniProt P19525 (P19525 whole entry): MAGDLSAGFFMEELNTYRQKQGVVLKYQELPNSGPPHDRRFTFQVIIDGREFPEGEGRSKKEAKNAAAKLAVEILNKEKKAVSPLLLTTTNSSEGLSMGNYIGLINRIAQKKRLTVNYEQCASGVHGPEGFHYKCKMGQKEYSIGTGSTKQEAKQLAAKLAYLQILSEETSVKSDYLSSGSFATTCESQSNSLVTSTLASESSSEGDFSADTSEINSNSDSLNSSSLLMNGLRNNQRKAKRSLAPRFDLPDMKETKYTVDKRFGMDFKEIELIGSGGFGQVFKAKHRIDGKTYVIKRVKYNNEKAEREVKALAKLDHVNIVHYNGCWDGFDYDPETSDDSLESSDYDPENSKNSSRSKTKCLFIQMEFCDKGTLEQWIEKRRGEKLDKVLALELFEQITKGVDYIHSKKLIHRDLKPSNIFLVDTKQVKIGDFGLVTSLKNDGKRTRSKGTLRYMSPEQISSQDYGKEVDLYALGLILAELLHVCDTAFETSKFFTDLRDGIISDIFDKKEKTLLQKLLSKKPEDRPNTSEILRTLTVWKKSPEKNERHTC

ABCC1 = ABCC1 (UniProt P33527)
CLK3 = CLK3 (UniProt P49761)
UniProt P49841 = target: UniProt P49841
TLK2 = TLK2 (UniProt Q86UE8)
UniProt Q8NEB9 = target: UniProt Q8NEB9
PXMP2 = PXMP2 (UniProt Q9NR77)
MAST3 = MAST3 (UniProt O60307)
Chain of MAST3 (O60307 whole entry): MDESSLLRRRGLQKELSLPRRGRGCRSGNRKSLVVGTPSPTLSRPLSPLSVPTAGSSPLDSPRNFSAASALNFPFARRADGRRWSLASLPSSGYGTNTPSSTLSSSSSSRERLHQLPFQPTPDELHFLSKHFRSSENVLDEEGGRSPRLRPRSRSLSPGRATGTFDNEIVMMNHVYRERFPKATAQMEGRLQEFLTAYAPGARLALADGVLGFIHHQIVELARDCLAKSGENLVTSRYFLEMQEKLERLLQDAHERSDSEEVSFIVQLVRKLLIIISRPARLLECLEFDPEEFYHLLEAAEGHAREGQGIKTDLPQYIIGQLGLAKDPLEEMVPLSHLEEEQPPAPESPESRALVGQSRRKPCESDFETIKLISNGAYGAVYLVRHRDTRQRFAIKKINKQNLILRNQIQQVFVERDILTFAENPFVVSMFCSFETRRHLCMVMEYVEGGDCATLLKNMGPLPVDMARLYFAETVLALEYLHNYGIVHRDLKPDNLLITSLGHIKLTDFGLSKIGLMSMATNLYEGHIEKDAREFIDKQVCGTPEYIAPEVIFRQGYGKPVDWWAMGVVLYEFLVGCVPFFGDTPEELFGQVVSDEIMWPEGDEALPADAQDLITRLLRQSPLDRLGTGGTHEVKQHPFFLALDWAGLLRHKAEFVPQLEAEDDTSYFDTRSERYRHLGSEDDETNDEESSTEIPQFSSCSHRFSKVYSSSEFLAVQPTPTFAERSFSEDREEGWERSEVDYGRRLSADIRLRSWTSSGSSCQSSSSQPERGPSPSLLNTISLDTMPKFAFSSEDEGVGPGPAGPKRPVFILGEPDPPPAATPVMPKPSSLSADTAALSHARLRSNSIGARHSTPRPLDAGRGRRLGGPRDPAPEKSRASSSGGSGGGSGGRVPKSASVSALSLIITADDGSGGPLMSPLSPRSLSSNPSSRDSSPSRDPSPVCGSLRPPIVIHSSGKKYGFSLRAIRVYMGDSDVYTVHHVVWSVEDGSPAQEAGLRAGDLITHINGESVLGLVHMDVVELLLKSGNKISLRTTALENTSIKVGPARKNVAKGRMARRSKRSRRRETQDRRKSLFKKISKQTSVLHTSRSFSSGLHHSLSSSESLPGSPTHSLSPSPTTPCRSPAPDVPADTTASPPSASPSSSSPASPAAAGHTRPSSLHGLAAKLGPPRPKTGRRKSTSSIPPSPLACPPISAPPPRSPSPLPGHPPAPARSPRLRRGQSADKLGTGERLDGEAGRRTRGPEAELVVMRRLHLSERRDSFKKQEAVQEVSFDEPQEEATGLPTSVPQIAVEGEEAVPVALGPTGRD

UniProt O43318 = target: T1, UniProt O43318
T1 sequence (whole entry): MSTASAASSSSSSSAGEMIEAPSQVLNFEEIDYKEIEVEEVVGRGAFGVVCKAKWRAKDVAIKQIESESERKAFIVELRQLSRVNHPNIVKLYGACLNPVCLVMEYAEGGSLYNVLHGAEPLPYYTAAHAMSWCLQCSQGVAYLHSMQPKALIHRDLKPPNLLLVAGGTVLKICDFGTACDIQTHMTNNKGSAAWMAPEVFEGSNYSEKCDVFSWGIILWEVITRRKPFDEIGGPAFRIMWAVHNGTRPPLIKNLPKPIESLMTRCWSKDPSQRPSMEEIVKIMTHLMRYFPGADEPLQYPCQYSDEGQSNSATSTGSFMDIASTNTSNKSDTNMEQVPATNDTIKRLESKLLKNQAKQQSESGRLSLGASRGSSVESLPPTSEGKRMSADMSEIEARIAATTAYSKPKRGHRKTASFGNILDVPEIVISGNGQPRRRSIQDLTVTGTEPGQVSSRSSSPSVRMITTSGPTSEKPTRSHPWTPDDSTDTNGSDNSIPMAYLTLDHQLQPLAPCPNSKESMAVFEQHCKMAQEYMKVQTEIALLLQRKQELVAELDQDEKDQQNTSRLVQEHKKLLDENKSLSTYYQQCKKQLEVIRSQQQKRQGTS

UniProt Q15208 = target: UniProt Q15208
Chain of UniProt Q15208 (Q15208 whole entry, looked up): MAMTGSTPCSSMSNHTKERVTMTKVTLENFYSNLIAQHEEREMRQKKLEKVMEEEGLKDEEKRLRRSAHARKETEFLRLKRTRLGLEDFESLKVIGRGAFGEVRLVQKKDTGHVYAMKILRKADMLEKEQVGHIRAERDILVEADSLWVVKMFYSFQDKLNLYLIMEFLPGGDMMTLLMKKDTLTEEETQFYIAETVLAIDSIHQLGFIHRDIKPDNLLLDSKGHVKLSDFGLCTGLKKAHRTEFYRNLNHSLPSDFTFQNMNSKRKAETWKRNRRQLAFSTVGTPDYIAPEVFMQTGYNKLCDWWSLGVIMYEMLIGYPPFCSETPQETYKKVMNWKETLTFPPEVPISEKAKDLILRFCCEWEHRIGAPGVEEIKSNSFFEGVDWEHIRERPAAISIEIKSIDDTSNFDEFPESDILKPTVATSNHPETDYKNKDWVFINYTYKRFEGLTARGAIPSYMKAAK

TAOK3 = TAOK3 (UniProt Q9H2K8)
SCCPDH = SCCPDH (UniProt Q8NBX0)
UniProt Q9Y2H1 = target: UniProt Q9Y2H1
UniProt Q13043 = target: T2, UniProt Q13043
T2 sequence (whole entry): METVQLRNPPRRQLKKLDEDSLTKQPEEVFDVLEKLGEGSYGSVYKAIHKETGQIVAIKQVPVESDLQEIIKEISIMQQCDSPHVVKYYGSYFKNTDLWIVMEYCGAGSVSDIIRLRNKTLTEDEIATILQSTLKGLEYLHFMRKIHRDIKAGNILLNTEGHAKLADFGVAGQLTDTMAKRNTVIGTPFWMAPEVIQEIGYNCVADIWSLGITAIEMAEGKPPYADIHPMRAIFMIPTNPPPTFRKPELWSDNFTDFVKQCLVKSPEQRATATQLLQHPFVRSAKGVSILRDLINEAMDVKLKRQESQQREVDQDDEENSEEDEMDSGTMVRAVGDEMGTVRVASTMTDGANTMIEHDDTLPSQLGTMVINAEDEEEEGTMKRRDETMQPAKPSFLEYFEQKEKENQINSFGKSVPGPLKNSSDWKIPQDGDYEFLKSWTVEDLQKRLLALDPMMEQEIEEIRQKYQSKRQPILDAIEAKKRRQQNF

SLK = SLK (UniProt Q9H2G2)
Chain of SLK (Q9H2G2 whole entry, looked up): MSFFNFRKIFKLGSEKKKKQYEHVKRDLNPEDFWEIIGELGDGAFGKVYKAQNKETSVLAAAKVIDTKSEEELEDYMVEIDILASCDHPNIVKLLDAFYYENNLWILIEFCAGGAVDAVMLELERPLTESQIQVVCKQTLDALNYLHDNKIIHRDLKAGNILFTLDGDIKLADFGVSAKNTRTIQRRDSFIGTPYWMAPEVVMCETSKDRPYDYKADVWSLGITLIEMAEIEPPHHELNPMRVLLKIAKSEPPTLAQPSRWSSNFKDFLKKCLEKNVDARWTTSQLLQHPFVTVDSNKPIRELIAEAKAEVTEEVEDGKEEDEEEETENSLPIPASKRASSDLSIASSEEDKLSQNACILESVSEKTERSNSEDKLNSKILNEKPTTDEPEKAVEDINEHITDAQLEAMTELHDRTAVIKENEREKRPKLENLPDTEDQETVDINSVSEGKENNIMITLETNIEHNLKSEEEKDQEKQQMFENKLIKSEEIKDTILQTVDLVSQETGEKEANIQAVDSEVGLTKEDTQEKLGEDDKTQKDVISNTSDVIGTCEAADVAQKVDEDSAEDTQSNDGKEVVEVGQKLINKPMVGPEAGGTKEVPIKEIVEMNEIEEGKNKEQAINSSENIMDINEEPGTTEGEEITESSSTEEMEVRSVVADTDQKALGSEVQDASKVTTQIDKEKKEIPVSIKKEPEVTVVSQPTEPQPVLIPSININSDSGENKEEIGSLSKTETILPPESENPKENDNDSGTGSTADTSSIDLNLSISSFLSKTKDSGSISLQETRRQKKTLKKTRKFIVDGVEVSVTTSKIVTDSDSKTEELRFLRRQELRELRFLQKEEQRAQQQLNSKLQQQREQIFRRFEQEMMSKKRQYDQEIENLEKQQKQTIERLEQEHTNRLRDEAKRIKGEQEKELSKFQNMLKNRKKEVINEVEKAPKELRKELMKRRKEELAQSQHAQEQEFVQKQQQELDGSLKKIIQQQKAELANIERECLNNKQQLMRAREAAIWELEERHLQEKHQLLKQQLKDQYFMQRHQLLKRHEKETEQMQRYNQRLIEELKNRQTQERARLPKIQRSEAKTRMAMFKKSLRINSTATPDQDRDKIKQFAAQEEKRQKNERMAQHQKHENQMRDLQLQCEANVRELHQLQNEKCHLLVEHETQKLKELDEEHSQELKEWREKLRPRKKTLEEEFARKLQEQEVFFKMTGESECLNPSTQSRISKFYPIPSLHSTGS

NT5C3B = NT5C3B (UniProt Q969T7)
Chain of NT5C3B (Q969T7 whole entry): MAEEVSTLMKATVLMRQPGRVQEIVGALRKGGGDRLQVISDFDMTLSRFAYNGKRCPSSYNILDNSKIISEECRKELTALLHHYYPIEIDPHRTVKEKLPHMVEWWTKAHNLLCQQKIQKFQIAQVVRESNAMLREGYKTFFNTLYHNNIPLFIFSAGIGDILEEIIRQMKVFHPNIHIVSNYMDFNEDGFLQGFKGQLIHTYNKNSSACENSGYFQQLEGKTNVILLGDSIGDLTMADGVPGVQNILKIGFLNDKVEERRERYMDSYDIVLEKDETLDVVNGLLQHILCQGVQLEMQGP

SRC = SRC (UniProt P12931)
MAP4K5 = MAP4K5 (UniProt Q9Y4K4)
UniProt Q92918 = target: UniProt Q92918
CES3 = CES3 (UniProt Q6UWW8)
CASP6 = CASP6 (UniProt P55212)
Chain of CASP6 (P55212 whole entry): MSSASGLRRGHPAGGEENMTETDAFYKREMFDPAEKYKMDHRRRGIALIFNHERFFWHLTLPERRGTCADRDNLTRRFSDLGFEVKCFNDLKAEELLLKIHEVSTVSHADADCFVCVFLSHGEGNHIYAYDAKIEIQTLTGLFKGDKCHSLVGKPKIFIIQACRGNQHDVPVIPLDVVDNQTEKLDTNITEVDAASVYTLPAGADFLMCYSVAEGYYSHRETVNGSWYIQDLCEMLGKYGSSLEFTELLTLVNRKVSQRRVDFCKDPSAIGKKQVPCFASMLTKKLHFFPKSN

IRAK1 = IRAK1 (UniProt P51617)
Chain of IRAK1 (P51617 whole entry, looked up): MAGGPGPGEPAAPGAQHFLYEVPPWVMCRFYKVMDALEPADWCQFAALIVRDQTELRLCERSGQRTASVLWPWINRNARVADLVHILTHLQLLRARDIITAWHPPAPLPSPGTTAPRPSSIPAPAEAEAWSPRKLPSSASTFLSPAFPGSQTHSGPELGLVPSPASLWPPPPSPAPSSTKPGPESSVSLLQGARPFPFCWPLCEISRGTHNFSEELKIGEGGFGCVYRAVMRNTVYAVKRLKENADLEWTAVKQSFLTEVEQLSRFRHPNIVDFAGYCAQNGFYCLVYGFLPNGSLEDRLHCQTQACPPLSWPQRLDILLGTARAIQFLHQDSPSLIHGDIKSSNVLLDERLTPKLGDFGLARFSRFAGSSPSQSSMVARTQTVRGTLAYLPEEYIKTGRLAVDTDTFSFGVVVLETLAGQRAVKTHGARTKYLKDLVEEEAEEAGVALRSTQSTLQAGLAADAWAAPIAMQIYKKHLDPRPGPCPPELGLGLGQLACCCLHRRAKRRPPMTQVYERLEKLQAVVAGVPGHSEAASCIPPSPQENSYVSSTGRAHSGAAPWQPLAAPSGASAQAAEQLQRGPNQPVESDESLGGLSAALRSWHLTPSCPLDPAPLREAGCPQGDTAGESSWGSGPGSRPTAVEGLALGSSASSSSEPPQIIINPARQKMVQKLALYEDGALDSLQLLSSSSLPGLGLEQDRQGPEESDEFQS

CC#CC(=O)Nc1ccc2ncnc(Nc3cccc(Br)c3)c2c1 [EKI-785]
pIC50 (CDK5): < 4.52 | pIC50 (UniProt P49840): < 4.52 | pIC50 (RIPK1): < 4.52 | pIC50 (UniProt P36507): < 4.52 | pIC50 (UniProt P45983): < 4.52 | pIC50 (UniProt P45984): 4.6

CCc1cnn2c(NCc3ccc[n+]([O-])c3)cc(N3CCCC[C@H]3CCO)nc12 [dinaciclib]
pIC50 (UniProt Q9P289): < 4.52 | pIC50 (PNPLA6): < 4.52 | pIC50 (FER): < 4.52 | pIC50 (UniProt P19525): < 4.52 | pIC50 (ABCC1): < 4.52 | pIC50 (CLK3): < 4.52 | pIC50 (UniProt P49841): 4.85 ± 0.27 | pIC50 (TLK2): < 4.52 | pIC50 (UniProt Q8NEB9): < 4.52 | pIC50 (PXMP2): < 4.52 | pIC50 (MAST3): < 4.52 | pIC50 (UniProt O43318): < 4.52 | pIC50 (UniProt Q15208): < 4.52 | pIC50 (TAOK3): < 4.52 | pIC50 (SCCPDH): < 4.52 | pIC50 (UniProt Q9Y2H1): < 4.52 | pIC50 (UniProt Q13043): < 4.52 | pIC50 (SLK): < 4.52 | pIC50 (NT5C3B): < 4.52 | pIC50 (SRC): < 4.52 | pIC50 (MAP4K5): < 4.52 | pIC50 (UniProt Q92918): < 4.52 | pIC50 (CES3): < 4.52 | pIC50 (CASP6): < 4.52 | pIC50 (IRAK1): < 4.52
